Earlier results in patent US20200171007A1, “Methods of Treating Hepatorenal Syndrome and Hepatic Encephalopathy with Thromboxane-A2 Receptor Antagonists” (Cumberland Pharmaceuticals Inc., priority 2010, published 2020).
Where a SMILES comes first, the peptide text is derived from it. Bridges are numbered along the chain shown (N, C = ends). [ ]: non-standard residue; d: D form.

Tests used:
patients with cirrhosis = patients with cirrhosis / hepatorenal syndrome
[1] = tested on: patients with cirrhosis, ascites, and hepatorenal syndrome; settings: case series
[2] = tested on: patients with hepatorenal syndrome; settings: intravenous, twelve patients
[3] = tested on: patients with type 1 hepatorenal syndrome; settings: nonpressor doses, with albumin
[4] = tested on: patients with hepatorenal syndrome; settings: five studies
[5] = tested on: patients with hepatorenal syndrome
[6] = tested on: patients with type 1 hepatorenal syndrome
[7] = tested on: patients with hepatorenal syndrome; settings: ornipressin and albumin
[8] = tested on: patients with type 1 hepatorenal syndrome; settings: type 1 hepatorenal syndrome (octapressin); short-term use (ornipressin)
[9] = includes 2 patients who received liver transplantation

Compound: Cc1ccc(N(CC2=NCCN2)c2cccc(O)c2)cc1 [phentolamine]
- effect on blood pressure and renal function (patients with cirrhosis): Poor results

Compound: CC(C)C[C@@H]1NC(=O)[C@@H](C(C)C)NC(=O)[C@@H]2CCCN2C(=O)[C@@H](CC(=O)O)NC(=O)[C@@H](Cc2c[nH]c3ccccc23)NC1=O [BQ123] (cyclo(L[dW][dD]P[dV]))
- patients with improvement in the glomerular filtration rate [1]: 3 patients

Compound: CC(=O)N[C@@H](CS)C(=O)O [NAC, N-acetylcysteine]
- adverse effects [2]: without any adverse effects
- survival rate at 1 month [2, 9]: 67%
- survival rate at 3 months [2, 9]: 58%

Compound: NCCc1ccc(O)c(O)c1 [dopamine]
- improvement in renal function [3]: none of the patients treated with dopamine showed any improvement in renal function
- changes in renal plasma flow, glomerular filtration rate, or urine output [4]: none have reported significant changes

Compound: CNCC(=O)N[C@@H](CCCN=C(N)N)C(=O)N[C@H](C(=O)N[C@@H](Cc1ccc(O)cc1)C(=O)N[C@H](C(=O)N[C@@H](Cc1cnc[nH]1)C(=O)N1CCC[C@H]1C(=O)N[C@@H](C)C(=O)O)C(C)C)C(C)C [Saralasin]
- effect on blood pressure and renal function (patients with cirrhosis): worsening hypotension and deterioration in renal function

Compound: NCCCC[C@H](NC(=O)[C@@H]1CCCN1C(=O)[C@@H]1CSSC[C@H](NC(=O)CNC(=O)CNC(=O)CN)C(=O)N[C@@H](Cc2ccc(O)cc2)C(=O)N[C@@H](Cc2ccccc2)C(=O)N[C@@H](CCC(N)=O)C(=O)N[C@@H](CC(N)=O)C(=O)N1)C(=O)NCC(N)=O [terlipressin] (H-GGGCYFQNCPKG-NH2; disulfide 4-9)
- adverse ischemic effects ([5]; human, in vivo): No adverse ischemic effects were reported
- Reversal of hepatorenal syndrome ([5]; terlipressin and albumin for 5-15 days, 9 patients treated): 7 of 9
- recurrent hepatorenal syndrome after treatment discontinuation ([6]; in conjunction with albumin): < 15%
- improvement in glomerular filtration rate and reduction in serum creatinine levels to below 1.5 mg/dL, share of patients ([6]; in conjunction with albumin, type 1 hepatorenal syndrome): 60-75%
- Ischemic complications ([6]; in vivo): < 5%

Compound: NCCC[C@H](NC(=O)[C@@H]1CCCN1C(=O)[C@@H]1CSSC[C@H](N)C(=O)N[C@@H](Cc2ccc(O)cc2)C(=O)N[C@@H](Cc2ccccc2)C(=O)N[C@@H](CCC(N)=O)C(=O)N[C@@H](CC(N)=O)C(=O)N1)C(=O)NCC(N)=O [ornipressin]
- patients in whom treatment had to be discontinued because of complications (ischemic colitis, tongue ischemia, glossitis) ([7]; 8 patients, after fewer than 9 days): 4 patients
- improvement in renal plasma flow and glomerular filtration rate ([7]; remaining 4 patients treated for 15 days): significant
- Renal plasma flow and glomerular filtration rate [8]: significant increase
